“And” between values parts separate entries of the source, which are not always exact repeats. Equal values may be shown once. Read-outs that look alike come from different tables or passages of the source.
Key:
[1] = molecular target: T1, WT GLIC (Gloeobacter violaceus, UniProt Q7NDN8); assay: Whole-cell patch-clamp, direct protocol (pHo jump and compound applied simultaneously), WT GLIC in tk-ts13 cells; type: cell-based; details: 1 mM at pHo 5.0, direct protocol, individual cells; for ratio of peak current values in the presence and in the absence of compound (Ipk[CBX@5.0]/Ipk[pHo 5.0]): first CBX application; for current decay (h) time constant: m^4 h fit
T1 construct: expressed in transfected cells; host or cells: tk-ts13 cells, GLIC DNA in pMT3 vector
T1 sequence (Q7NDN8 44-359): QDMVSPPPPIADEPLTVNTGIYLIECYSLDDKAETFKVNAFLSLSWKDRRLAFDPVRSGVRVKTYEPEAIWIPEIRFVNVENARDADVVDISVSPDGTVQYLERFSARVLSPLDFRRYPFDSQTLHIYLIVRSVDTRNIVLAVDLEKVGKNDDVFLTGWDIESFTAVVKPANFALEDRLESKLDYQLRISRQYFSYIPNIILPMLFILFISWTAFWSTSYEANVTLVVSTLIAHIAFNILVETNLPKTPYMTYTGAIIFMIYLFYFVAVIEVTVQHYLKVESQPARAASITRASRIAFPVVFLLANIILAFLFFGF
Excerpt: A direct protocol, where a pHo‐jump (from control pHo 7.5) and compound addition are applied simultaneously, was first used to examine the influence of saturated, short‐chain mono‐CBX compounds on low pHo‐induced GLIC current (Figure 1a).

[2] = molecular target: GLIC R133A (Gloeobacter violaceus, UniProt Q7NDN8, R175A); assay: Whole-cell patch-clamp, direct protocol, GLIC R133A
Chain of GLIC R133A (Q7NDN8 44-359 R175A): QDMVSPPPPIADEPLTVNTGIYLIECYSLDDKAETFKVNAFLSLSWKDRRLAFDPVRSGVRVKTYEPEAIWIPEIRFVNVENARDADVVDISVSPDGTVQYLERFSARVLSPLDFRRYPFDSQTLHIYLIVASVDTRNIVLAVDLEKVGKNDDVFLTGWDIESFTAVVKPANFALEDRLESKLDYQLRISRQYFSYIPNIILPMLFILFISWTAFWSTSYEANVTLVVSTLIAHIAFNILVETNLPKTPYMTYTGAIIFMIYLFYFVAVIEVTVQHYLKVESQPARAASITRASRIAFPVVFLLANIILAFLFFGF

[3] = molecular target: T2, GLIC E181A (Gloeobacter violaceus, UniProt Q7NDN8, E223A); type: cell-based; details: 1 mM at pHo 5.0, versus WT GLIC
T2 construct: expressed in transfected cells; host or cells: tk-ts13 cells, pMT3 vector
T2 sequence (Q7NDN8 44-359 E223A): as the sequence (Q7NDN8 44-359 R175A) above, with A132R, E180A counted along it
Procedure: ACET (Figure 4) and the 4‐carbon compounds BUTYR and CROTON (Figure 5) were tested on the CBX‐pockets single mutants, at 1 mM with pre‐stimulation at pHo 5.0.

[4] = molecular target: T1, WT GLIC; assay: Whole-cell patch-clamp, protocol with pre-stimulation at low pHo, WT GLIC expressed in tk-ts13 cells; type: cell-based; details: for current in the presence of mono-CBX, % of control: 1 mM at pHo 5.0, WT sample of Figure 7, mean; for current in the presence of mono-CBX, % of control (100*I CBX/I CONTROL): 1 mM at pHo 5.0, WT sample of Figures 4 and 5, mean; for IC50: read-out: IC50 (from individual cells)
Procedure: We give here the main points and some differences.
All solutions were prepared from the acid forms of the buffers/acido‐basic compounds (BAPTA, HEPES, MES, CBX, etc.). Stock 100 mmol/L (mM) mono‐CBX water solutions were prepared directly at pH 5 (NaOH/HCl), aliquoted and kept at −20°C.
Fit of concentration‐effect curves. For proton activation curves, the peak value (Ipk[pHo]; inward current value at maximal absolute value) within 30 s was considered (y), and a plot against H^+ activity value (x) was fitted with a 3‐parameter Hill equation: y=ymax*1/1+EC50nH/x^nH , giving I max, EC50, and pH50 = −log(EC50). For potentiation/inhibition, data for [percent of control current] in the presence of the compound (y = 100*I CBX/I CONTROL) to [compound concentration value] […] For most compounds are presented: a fit of the mean of data (Graphs), and the mean ± standard deviation (SD) of data from individual cells (values in text).

[5] = molecular target: GLIC AA‐N152A (Gloeobacter violaceus, UniProt Q7NDN8, D128A/D130A/N194A); assay: Whole-cell patch-clamp with pre-stimulation, GLIC AA-N152A; details: CROTON 1 mM at pHo 5.0, single exponential fit
Chain of GLIC AA‐N152A (Q7NDN8 44-359 D128A/D130A/N194A): as the sequence (Q7NDN8 44-359 R175A) above, with D85A, D87A, A132R, N151A counted along it
Procedure: (§1) Nuclear injection of DNA was done on the day of reception of oocytes. […] Transfection was done within 24 h after cell seeding, using the DNA‐calcium phosphate co‐precipitation method. GFP‐positive cells were used for electrophysiology 1–2 days after transfection (tk‐ts13 cells), or 1–3 days after nuclear injection (oocytes). A mixture of DNAs coding for GLIC and GFP in separate pMT3 vectors was used, with amounts of [2 + 0.2] μg per 35 mm dish for transfections, or [0.04 + 0.02] g/L in water for injections.
(§2) The intracellular pipette solution was composed of (in mM): CsCl 150, MgCl2 1, HEPES 10, BAPTA 10, CsOH to pH 7.3. […] Lower pH values were reached by adding to this solution HCl 2 M in water (and more pH 7.5 solution to return pH up if necessary). […] A 3 M KCl, 5 g/L agar bridge was used to connect the reference electrode to the dish solution. […] Electric current flowing through the membrane from extracellular to intracellular face (inward current) is counted negative, and represented downwards in the figures. […]
(§3) Positive/negative modulation was evaluated as current in the presence of the compound, in percent of the control GLIC current value measured immediately before compound application (with a correction for GLIC current decay only for small inhibitions). […]

[6] = test system: GLIC [AA + CBX‐pocket] triple mutants; assay: Whole-cell patch-clamp with pre-stimulation, [AA + CBX-pocket] triple mutants; details: 1 mM at pHo 5.0, compared to AA double mutant
Procedure: as §1, §2, §3

[7] = 5 or 10 mM, pre-stimulation at pHo 5.0, 2–5 cells each

## CCCC(=O)O [BUTYR, Butanoic acid]
[1]
  ratio of peak current values in the presence and in the absence of compound (Ipk[CBX@5.0]/Ipk[pHo 5.0]): 0.257 and 0.332
  current decay (h) time constant: 0.541 s and 0.304 s
[2]
  peak current inhibition: almost fully abolished
[3]
  impact of the E181A substitution on the NAM effect: no impact
[4]
  current in the presence of mono-CBX, % of control: 13.6 % of control
  current in the presence of mono-CBX, % of control (100*I CBX/I CONTROL): 10.3 % of control
[4]; pHo 5.0, mean ± SD
  IC50: 219 µM
[4]; pHo 5.5, mean ± SD
  slope parameter nH (from individual cells): 1.5
  IC50: 150 µM

## phosphate
[4]; 1 and 10 mM at pH 5.0, extracellular solution without CaCl2, n = 4 cells
  effect on GLIC activity: no effect

## C[C@H](N)C(=O)O [(L)‐alanine]
[4]; [7]
  effect on GLIC current: no effect

## NCC(=O)O [glycine]
[4]; [7]
  effect on GLIC current: no effect

## O=C(O)CC(O)(CC(=O)O)C(=O)O [citrate]
[4]; citrate used as buffer, conditions not given
  effect on GLIC current: no effect

## CCC(=O)O [PROPION, Propanoic acid]
[1]
  ratio of peak current values in the presence and in the absence of compound (Ipk[CBX@5.0]/Ipk[pHo 5.0]): 0.380
  current decay (h) time constant: 1.47 s
[4]; 1 mM with pre-stimulation, pHo 5.0
  activity on GLIC current (NAM effect): active
[4]; after compound wash-out
  reversibility of negative modulation (slow components): 3 to 10 min
[4]; pHo 5.5, mean ± SD
  slope parameter nH (from individual cells): 1.1
  IC50: 204 µM

## NCCCC(=O)O [GABA, γ‐amino butyrate]
[4]; [7]
  effect on GLIC current: no effect

## C/C=C/C(=O)O [CROTON, Butenoic acid]
[1]
  ratio of peak current values in the presence and in the absence of compound (Ipk[CBX@5.0]/Ipk[pHo 5.0]): 0.228 and 0.244
  current decay (h) time constant: 0.695 s and 0.583 s
[2]
  peak current inhibition: almost fully abolished
[3]
  impact of the E181A substitution on the NAM effect: no impact
[4]
  current in the presence of mono-CBX, % of control: 13.6 % of control
  current in the presence of mono-CBX, % of control (100*I CBX/I CONTROL): 11.9 % of control
[4]; pHo 5.0, mean ± SD
  IC50: 191 µM
[5]
  decay constant tau of PAM ratio versus control current amplitude: 800 nA
[6]
  CROTON PAM effect after adding a binding pocket mutation to AA (excluding AA‐N152A): fully abolished

Source: publication PMC10859675, “Short‐chain mono‐carboxylates as negative modulators of allosteric transitions in Gloeobacter violaceus ligand‐gated ion channel, and impact of a pre‐β5 strand (Loop Ω) double mutation on crotonate, not butyrate effect” (Physiological Reports, 2024)
